In ChEMBL document CHEMBL1158952, “An Nmr Study of Four Benzophenanthridine Alkaloids” (J Nat Prod, 1991):
Active and inactive are the calls of the source.

Experiments:
Assay type in all cases: functional, organism-based
Escherichia coli = test: Antimicrobial activity against Escherichia coli ATCC 25922 at 25 ug
Penicillium oxalicum = test: Antimicrobial activity against Penicillium oxalicum CBS 219.30 at 25 ug
Bacillus subtilis = test: Antimicrobial activity against Bacillus subtilis ATCC 6633 at 25 ug
Micrococcus luteus = test: Antimicrobial activity against Micrococcus luteus ATCC 9341 at 25 ug

Measured: Activity

COc1cc2c(c3c1-c1ccc4cc5c(cc4c1N(C)C3)OCO5)OCO2
inactive: all assays above

COc1ccc2c(c1OC)CN(C)c1c-2ccc2cc3c(cc12)OCO3
inactive: all assays above

CN1Cc2c(ccc3c2OCO3)-c2ccc3cc4c(cc3c21)OCO4
inactive: all assays above

COc1ccc2c(c1OC)CN(C)c1c-2cc(OC)c2cc3c(cc12)OCO3
inactive: all assays above
